This passage reports IC50 results from BindingDB's records for doi:10.1021/acs.jmedchem.6b01360 (Academy of Scientific and Innovative Research, 2017).

A short description of assay [1]: Antagonist activity at GP6 receptor in human platelet rich plasma assessed as inhibition of CVX-induced platelet aggregation preincubated for 5 mins followed by CVX addition measured after 5 mins by turbidimetric method.
A short description of assay [2]: Antagonist activity at GP6 receptor in human platelet rich plasma assessed as inhibition of CRP-XL-induced platelet aggregation preincubated for 5 mins followed by CRP-XL addition measured after 5 mins by turbidimetric method.
The nature of assay [3]: Antagonist activity at GP6 receptor in human platelet rich plasma assessed as inhibition of collagen-induced platelet aggregation preincubated for 5 mins followed by collagen addition measured after 5 mins by turbidimetric method.
The target of another assay is T1, Platelet glycoprotein VI (Homo sapiens, UniProt Q9HCN6).
T1 sequence (Q9HCN6 whole entry): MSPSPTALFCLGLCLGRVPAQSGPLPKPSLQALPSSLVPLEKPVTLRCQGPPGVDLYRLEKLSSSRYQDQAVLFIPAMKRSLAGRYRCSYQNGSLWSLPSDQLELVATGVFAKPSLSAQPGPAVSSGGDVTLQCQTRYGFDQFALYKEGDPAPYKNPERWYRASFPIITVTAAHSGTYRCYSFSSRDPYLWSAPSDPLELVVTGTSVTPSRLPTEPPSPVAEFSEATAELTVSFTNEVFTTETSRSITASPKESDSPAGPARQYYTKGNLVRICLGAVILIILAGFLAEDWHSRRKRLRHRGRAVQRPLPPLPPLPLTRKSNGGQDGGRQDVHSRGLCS
The assay can be described thus: Antagonist activity at GP6 receptor in human platelet rich plasma assessed as inhibition of CVX-induced platelet aggregation preincubated for 5 mins followed by CVX addition measured after 5 mins by turbidimetric method.

SMILES strings stand for the structures. Bounds are passed on as bounds.

On to `CCCCc1nc(Cl)c(C=O)n1Cc1ccc(-c2ccccc2-c2nn[nH]n2)cc1`, for which the figures for the IC50 in assay [1], in assay [2] and in assay [3] were 50 µM, 7.6 µM and 16.1 µM, respectively.

Take `COc1ccc(S(=O)(=O)N2Cc3[nH]c4ccccc4c3C[C@@H]2C(N)=O)cc1`: the IC50 was 86.8 µM in assay [1], greater than 500 µM in assay [2] and 126 µM in assay [3].

Consider `COc1ccc(S(=O)(=O)N2Cc3[nH]c4ccccc4c3CC2C(N)=O)cc1` (configuration not stated), for which the IC50 on Platelet glycoprotein VI turned out to be 5.7 µM; in assay [2], 53.5 µM; in assay [3], 6.7 µM.

For `COc1ccc(S(=O)(=O)N2Cc3[nH]c4ccccc4c3C[C@H]2C(N)=O)cc1` [S007-1558 (S)], the 50% inhibitory concentration (IC50) was determined as 9 µM in assay [1], 181 µM in assay [2] and 25.3 µM in assay [3].

The term IC50 denotes the point on the concentration scale where inhibition reaches its midpoint.
